Measured values as given in patent publication US11345666B2, “Phenyl and pyridinyl substituted imidazoles as modulators of RORγT” (Janssen Pharmaceutica NV, priority 2018, dated 2022).

How the values were obtained:
[1] = system: IL-17 production by CD4 T cells; experiment: Human Th17 assay; assay type: cell-based; details: 72 h, IL-17 in supernatant after 3 days
Excerpt: The human Th17 assay tests the effect of RORγt modulatory compounds on IL-17 production by CD4 T cells under conditions which favor Th17 differentiation. Total CD4^+ T cells were isolated from the peripheral blood mononuclear cells (PBMC) of healthy donors using a CD4^+ T cell isolation kit II, following the manufacturer's instructions (Miltenyi Biotec). Cells were resuspended in a medium of RPMI-1640 supplemented with 10% fetal bovine serum, penicillin, streptomycin, glutamate, and β-mercaptoethanol and were added to 96-well plates at 1.5×10^5 per 100 μL per well. 50 μL of compound at titrated concentrations in DMSO were added into each well at final DMSO concentration at 0.2%. Cells were incubated for 1 hour, then 50 μL of Th17 cell differentiation medium was added to each well. The final concentrations of antibodies and cytokines (R&D Systems) in differentiation medium were: 3×10^6/mL anti-CD3/CD28 beads (prepared using human T cell activation/expansion kit, Miltenyi Biotec), 10 μg/mL anti-IL4, 10 μg/mL anti-IFNγ, 10 ng/mL IL1β, 10 ng/mL IL23, 50 ng/mL IL6, 3 ng/mL TGFβ and 20 U/mL IL2. Cells were cultured at 37° C. and 5% CO2 for 3 days. Supernatants were collected and the accumulated IL-17 in culture was measured by using MULTI-SPOT® Cytokine Plate following manufacture's instruction (Meso Scale Discovery). The plate was read using Sector Imager 6000, and IL-17 concentration was extrapolated from the standard curve. The IC50s were determined by GraphPad.

[2] = target: human RORγt ligand binding domain (RORγt LBD) (Homo sapiens (Human), UniProt P51449); experiment: RORγt ThermoFluor assay
Chain of human RORγt ligand binding domain (RORγt LBD) (P51449 other isoform, or with tags, fused parts or gaps): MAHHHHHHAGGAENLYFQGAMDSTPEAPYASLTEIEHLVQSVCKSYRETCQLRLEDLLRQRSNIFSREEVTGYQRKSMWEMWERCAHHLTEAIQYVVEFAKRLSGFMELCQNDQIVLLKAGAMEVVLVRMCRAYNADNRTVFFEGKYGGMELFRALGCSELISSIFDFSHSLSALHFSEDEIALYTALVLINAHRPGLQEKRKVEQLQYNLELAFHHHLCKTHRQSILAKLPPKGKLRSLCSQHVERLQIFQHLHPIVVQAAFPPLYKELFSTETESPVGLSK
Summary of the method: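 Thermal shift of His-tagged human RORγt LBD (0.065 mg/mL) with 60 μM 1,8-ANS in 100 mM Hepes pH 7.0, 10 mM NaCl, 2.5 mM GSH, 0.002% Tween-20, heated at 1° C./min. Compounds in 1:2 series from a 10 mM DMSO stock; KD estimated from ΔTm using protein unfolding thermodynamics.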

IC50 [1] | Kd [2] | SMILES
42 nM | 20 nM | CCc1nc(C(=O)NC[C@H]2CC[C@H](S(C)(=O)=O)CC2)c(Cl)n1-c1ccc(CCC(F)(F)F)cc1F [Example 22, 5-Chloro-2-ethyl-1-(2-fluoro-4-(3,3,3-trifluoropropyl)phenyl)-N-(((1r,4r)-4-(methylsulfonyl)cyclohexyl)methyl)-1H-imidazole-4-carboxamide]
13 nM | 0.76 nM | [2H]C([2H])([2H])Oc1cc(CC(C)(C)C(F)(F)F)ccc1-n1c(CC)nc(C(=O)NC[C@H]2CC[C@H](S(C)(=O)=O)CC2)c1C#N [Example 27, 5-Cyano-2-ethyl-1-(2-(methoxy-d3)-4-(3,3,3-trifluoro-2,2-dimethylpropyl)phenyl)-N-(((1r,4r)-4-(methylsulfonyl)cyclohexyl)methyl)-1H-imidazole-4-carboxamide]
85 nM | 2.4 nM | CCc1nc(C(=O)NC[C@H]2CC[C@H](S(C)(=O)=O)CC2)c(Cl)n1-c1ncc(CC(C)(C)C(F)(F)F)cc1OC(F)F [Example 2, 5-Chloro-1-(3-(difluoromethoxy)-5-(3,3,3-trifluoro-2,2-dimethylpropyl)pyridin-2-yl)-2-ethyl-N-((4-(methylsulfonyl)cyclohexyl)methyl)-1H-imidazole-4-carboxamide]
220 nM | 12 nM | CCc1nc(C(=O)NC[C@H]2CC[C@H](S(C)(=O)=O)CC2)c(F)n1-c1ccc(N[C@H](C)C(F)(F)F)cc1OC [Example 12, 2-Ethyl-5-fluoro-1-(2-methoxy-4-(((R)-1,1,1-trifluoropropan-2-yl)amino)phenyl)-N-(((1r,4R)-4-(methylsulfonyl)cyclohexyl)methyl)-1H-imidazole-4-carboxamide]
31 nM | 3.5 nM | CCc1nc(C(=O)NC[C@H]2CC[C@H](S(C)(=O)=O)CC2)c(Cl)n1-c1ccc(N[C@H](C)C(F)(F)F)cc1OC [Example 3, 5-Chloro-2-ethyl-1-(2-methoxy-4-(((R)-1,1,1-trifluoropropan-2-yl)amino)phenyl)-N-(((1r,4R)-4-(methylsulfonyl)cyclohexyl)methyl)-1H-imidazole-4-carboxamide]
8 nM | 1.6 nM | CCc1nc(C(=O)NC[C@H]2CC[C@H](S(C)(=O)=O)CC2)c(C#N)n1-c1ccc(CC(C)(C)C(F)(F)F)cc1OC(F)F [Example 36, 5-Cyano-1-(2-(difluoromethoxy)-4-(3,3,3-trifluoro-2,2-dimethylpropyl)phenyl)-2-ethyl-N-(((1r,4r)-4-(methylsulfonyl)cyclohexyl)methyl)-1H-imidazole-4-carboxamide]

Continued, compound first:

SMILES | IC50 [1] | Kd [2]
CCc1nc(C(=O)NC[C@H]2CC[C@H](S(C)(=O)=O)CC2)c(C)n1-c1ccc(CC(C)C(F)(F)F)cc1OC (single isomer, unassigned) [Example 7] | 7 nM | 1 nM
CCc1nc(C(=O)NC[C@]2(O)CC[C@@H](S(C)(=O)=O)CC2)c(C)n1-c1ccc(CC(C(F)(F)F)C(F)(F)F)cc1F [Example 109, 2-Ethyl-1-(2-fluoro-4-(3,3,3-trifluoro-2-(trifluoromethyl)propyl)phenyl)-N-(((1s,4s)-1-hydroxy-4-(methylsulfonyl)cyclohexyl)methyl)-5-methyl-1H-imidazole-4-carboxamide] | 79 nM | 6.5 nM
CCc1nc(C(=O)NC[C@]2(O)CC[C@@H](S(C)(=O)=O)CC2)c(C#N)n1-c1ccc(CC(C)(C)C(F)(F)F)cc1OC(F)(F)F [Example 111, 5-Cyano-2-ethyl-N-(((1s,4s)-1-hydroxy-4-(methylsulfonyl)cyclohexyl)methyl)-1-(4-(3,3,3-trifluoro-2,2-dimethylpropyl)-2-(trifluoromethoxy)phenyl)-1H-imidazole-4-carboxamide] | 69 nM | 24 nM
CCc1nc(C(=O)NC[C@]2(O)CC[C@@H](S(C)(=O)=O)CC2)c(Cl)n1-c1c(F)cc(CC(C)C)cc1F [Example 83, 5-Chloro-1-(2,6-difluoro-4-isobutylphenyl)-2-ethyl-N-(((1s,4s)-1-hydroxy-4-(methylsulfonyl)cyclohexyl)methyl)-1H-imidazole-4-carboxamide] | > 6000 nM | 2.6 nM
CCc1nc(C(=O)NC[C@]2(O)CC[C@@H](S(C)(=O)=O)CC2)c(Cl)n1-c1ccc(CC(C(F)(F)F)C(F)(F)F)cc1F [Example 100, 5-Chloro-2-ethyl-1-(2-fluoro-4-(3,3,3-trifluoro-2-(trifluoromethyl)propyl)phenyl)-N-(((1s,4s)-1-hydroxy-4-(methylsulfonyl)cyclohexyl)methyl)-1H-imidazole-4-carboxamide] | 58 nM | 2.1 nM
CCc1nc(C(=O)NC[C@H]2CC[C@H](S(C)(=O)=O)CC2)c(Cl)n1-c1ccc(CC(C)C(F)(F)F)cc1OC (single isomer, unassigned) [Example 6, 5-Chloro-2-ethyl-1-((1S*)-2-methoxy-4-(3,3,3-trifluoro-2-methylpropyl)phenyl)-N-(((1r,4S)-4-(methylsulfonyl)cyclohexyl)methyl)-1H-imidazole-4-carboxamide] | 2 nM | 0.17 nM
